Assay results from publication PMC8779240 (Bioorganic & medicinal chemistry letters, 2021).

Legend:
[1] = system: S. aureus ParC^S80F GyrA^S84L; assay type: cell-based, Staphylococcus aureus; conditions: ParC^S80F/GyrA^S84L strain
Escherichia coli = assay: MIC against E. coli; assay type: cell-based

| SMILES | potency compared with fluoroquinolone parent, MIC data in units of μM [1] | further results |
| --- | --- | --- |
| CC(=O)O[C@H]1[C@H](C)[C@H](O)[C@H](C)[C@@H](O)[C@@H](C(C)OC(=O)C(C)(C)CC(=O)O)/C=C/C=C(/C)C(=O)Nc2c3oc4cc(N5Cc6cc(-c7ccc8c(=O)c(C(=O)O)cn(C9CC9)c8c7OC(F)F)ccc6[C@H]5C)cc(O)c4nc-3c3c4c(c(C)c(O)c3c2=O)O[C@](C)(O/C=C/[C@H](O[C@H]2C[C@@H]3OCO[C@@H]3[C@@H](C)O2)[C@H]1C)C4=O (stereo partly shown) [Compound 5c] | surpassed the potency of their fluoroquinolone parents |  |
| CC(=O)O[C@H]1[C@H](C)[C@H](O)[C@H](C)[C@@H](O)[C@@H](C(C)OC(=O)C(C)(C)CC(=O)O)/C=C/C=C(/C)C(=O)Nc2c3oc4cc(NC5(c6c(F)cc7c(=O)c(C(=O)O)cn8c7c6OC[C@@H]8C)CC5)cc(O)c4nc-3c3c4c(c(C)c(O)c3c2=O)O[C@](C)(O/C=C/[C@H](O[C@H]2C[C@@H]3OCO[C@@H]3[C@@H](C)O2)[C@H]1C)C4=O (stereo partly shown) [Compound 5b] | surpassed the potency of their fluoroquinolone parents |  |
| COc1c(N2C[C@@H]3CCCN(CCCNc4cc(O)c5nc6c7c8c9c(C)c(O)c7c(=O)c(c-6oc5c4)NC(=O)/C(C)=C\C=C\[C@H](C(C)OC(=O)C(C)(C)CC(=O)O)[C@H](O)[C@@H](C)[C@@H](O)[C@@H](C)[C@H](OC(C)=O)[C@H](C)[C@@H](O[C@H]4C[C@@H]5OCO[C@@H]5[C@@H](C)O4)/C=C/O[C@@](C)(O9)C8=O)[C@@H]3C2)c(F)cc2c(=O)c(C(=O)O)cn(C3CC3)c12 (stereo partly shown) [Compound 6e] | surpassed the potency of their fluoroquinolone parents |  |
| CC(=O)O[C@H]1[C@H](C)[C@H](O)[C@H](C)[C@@H](O)[C@@H](C(C)OC(=O)C(C)(C)CC(=O)O)/C=C/C=C(/C)C(=O)NC2=CC(=O)c3c(c(O)c(C)c4c3C(=O)[C@@](C)(O/C=C/[C@H](O[C@H]3C[C@@H]5OCO[C@@H]5[C@@H](C)O3)[C@H]1C)O4)C2=O (stereo partly shown) [Compound 1, kanglemycin A] |  | Gram-negative activity against E. coli (Escherichia coli): did not show Gram-negative activity |
| CC(=O)O[C@H]1[C@H](C)[C@H](O)[C@H](C)[C@@H](O)[C@@H](C(C)OC(=O)C(C)(C)CC(=O)O)/C=C/C=C(/C)C(=O)Nc2c3oc4cc(N5CCN(c6cc7c(cc6F)c(=O)c(C(=O)O)cn7C6CC6)CC5)cc(O)c4nc-3c3c4c(c(C)c(O)c3c2=O)O[C@](C)(O/C=C/[C@H](O[C@H]2C[C@@H]3OCO[C@@H]3[C@@H](C)O2)[C@H]1C)C4=O (stereo partly shown) [Compound 5a] |  | fold improvement in MIC compared to ciprofloxacin in units of μM ([1]; MIC in μM): ~ 277 fold; fold improvement in activity compared to ciprofloxacin ([1]; MIC in μg/mL): 64 fold |
| COc1c(N2C[C@@H]3CCCN(c4cc(O)c5nc6c7c8c9c(C)c(O)c7c(=O)c(c-6oc5c4)NC(=O)/C(C)=C\C=C\[C@H](C(C)OC(=O)C(C)(C)CC(=O)O)[C@H](O)[C@@H](C)[C@@H](O)[C@@H](C)[C@H](OC(C)=O)[C@H](C)[C@@H](O[C@H]4C[C@@H]5OCO[C@@H]5[C@@H](C)O4)/C=C/O[C@@](C)(O9)C8=O)[C@@H]3C2)c(F)cc2c(=O)c(C(=O)O)cn(C3CC3)c12 (stereo partly shown) [Compound 5e] | surpassed the potency of their fluoroquinolone parents |  |
